This passage reports IC50 results from patent US20220267260A1, “COMPOUNDS CONTAINING A SULFONIC GROUP AS KAT INHIBITORS” (Epizyme, Inc., priority 2016, published 2022).

pIC50: −log10 of the molar value.

One experiment addresses T1, KAT5 (Homo sapiens, UniProt Q92993).
T1 construct: His-TEV tag (N, cleaved yes); made in house
As to the kind of experiment: KAT5 enzyme inhibition assay (SAMDI mass spectrometry). The format is biochemical. Particulars: His-TEV-FL KAT5-Flag enzyme construct.

Another experiment concerns the target T2, KAT6A (Homo sapiens, UniProt Q92794).
T2 construct: His-TEV tag (N, cleaved yes); made in house
Kind of experiment: KAT6A enzyme inhibition assay (SAMDI mass spectrometry). The experiment is classed as biochemical. Particulars: His-TEV-KAT6A 501-784 enzyme construct.

T2 sequence (Q92794 with tags, fused parts or gaps): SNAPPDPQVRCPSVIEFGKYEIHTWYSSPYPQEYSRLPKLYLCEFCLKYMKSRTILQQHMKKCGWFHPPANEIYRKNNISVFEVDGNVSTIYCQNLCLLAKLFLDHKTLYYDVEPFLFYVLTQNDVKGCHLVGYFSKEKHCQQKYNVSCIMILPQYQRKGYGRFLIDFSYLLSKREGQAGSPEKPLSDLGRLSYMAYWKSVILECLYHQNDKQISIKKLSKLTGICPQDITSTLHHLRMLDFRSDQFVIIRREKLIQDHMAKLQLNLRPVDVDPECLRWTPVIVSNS
T1 sequence (Q92993 with tags, fused parts or gaps): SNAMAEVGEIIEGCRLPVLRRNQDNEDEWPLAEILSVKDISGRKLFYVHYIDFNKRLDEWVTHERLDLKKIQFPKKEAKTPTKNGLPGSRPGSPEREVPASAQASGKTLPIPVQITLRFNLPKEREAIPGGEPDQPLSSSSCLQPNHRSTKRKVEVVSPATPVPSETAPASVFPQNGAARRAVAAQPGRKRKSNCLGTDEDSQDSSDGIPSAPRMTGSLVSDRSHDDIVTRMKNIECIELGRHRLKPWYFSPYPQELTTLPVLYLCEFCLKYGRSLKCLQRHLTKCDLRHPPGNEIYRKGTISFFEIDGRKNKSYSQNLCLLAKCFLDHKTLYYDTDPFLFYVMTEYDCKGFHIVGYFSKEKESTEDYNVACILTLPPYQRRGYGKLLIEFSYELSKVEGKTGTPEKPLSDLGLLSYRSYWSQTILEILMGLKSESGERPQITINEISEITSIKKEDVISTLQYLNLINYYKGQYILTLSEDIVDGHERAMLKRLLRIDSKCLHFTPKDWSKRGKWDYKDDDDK

One may read the pIC50 as the IC50 on a negative log10 scale, so that one unit is a factor of ten. High values mean a small IC50, low ones a large IC50. As to `O=C(NNS(=O)(=O)c1ccccc1)c1cc(-c2ccccc2)cc(Cl)c1F` [Compound I-220], the pIC50 against KAT5 and against KAT6A was at least 5.00 each time.
On to `COc1cc(-c2ccccc2)cc(C(=O)NNS(=O)(=O)C2CCCCC2)c1F` [Compound I-315], for which the pIC50 against KAT5 and against KAT6A was 4.30 to 5.00 in each case.
Turning to `O=C(NNS(=O)(=O)C1CCCCC1)c1c(Cl)ccc(-c2ccccc2)c1Cl` [Compound I-275], the pIC50 at KAT5 and against KAT6A was under 4.00 each time.
As to `Cc1cccc(-c2ncc(C(=O)Nc3ccccc3)[nH]2)c1F` [Compound I-450], the pIC50 against KAT5 and against KAT6A was at least 5.00 throughout.
On to `COc1cccc(-c2cc(C)c(F)c(C(=O)NNS(=O)(=O)c3ccccc3)c2)c1` [Compound I-350], for which the pIC50 at KAT5 is under 4.00; against KAT6A, at least 5.00.
With `O=C(NNS(=O)(=O)C1CCOCC1)c1cc(CO)cc(Cl)c1F` [Compound I-465], the pIC50 on KAT5 was under 4.00; on KAT6A it was 4.00 to 4.30.
On the same counts, the results for `O=C(NNS(=O)(=O)c1ccccc1)c1cc(Cl)ccc1F` [Compound I-153] are 4.30 to 5.00 and at least 5.00.
On the same counts, the results for `Cc1cc(-c2ccc(F)cc2)cc(C(=O)NNS(=O)(=O)C2CCCCC2)c1F` [Compound I-319] are 4.30 to 5.00 and 4.00 to 4.30.
Taken in the same sequence, the figures for `Cc1cc(-c2ccccc2)cc(C(=O)NNS(=O)(=O)c2cccc(Cl)c2)c1F` [Compound I-187] were at least 5.00 and at least 5.00.
Take `Cc1cc(-c2ccccc2)cc(C(=O)NNS(=O)(=O)C2CCN(C(C)C)CC2)c1F` [Compound I-92]: the pIC50 against KAT5 and against KAT6A was under 4.00 in each case.
Turning to `Cc1cc(-c2ccccc2)cc(C(=O)NNS(=O)(=O)C2CC2)c1F` [Compound I-4], the pIC50 against KAT5 and at KAT6A was 4.00 to 4.30 in each case.
With `O=C(NNS(=O)(=O)c1ccccc1)c1cccc(-c2ccccc2)c1` [Compound I-144], the pIC50 on KAT5 is under 4.00; against KAT6A it was at least 5.00.
`Cc1cc(-c2ccccc2)cc(C(=O)NNS(=O)(=O)C2CCN(Cc3ccc(Cl)cc3)C2)c1F` (stereo not drawn) [Compound I-24]: the pIC50 at KAT5 and against KAT6A was 4.30 to 5.00 throughout.
With `COc1ccc(CN2CCC(S(=O)(=O)NNC(=O)c3cc(-c4ccccc4)cc(C)c3F)C2)cc1` (stereo not drawn) [Compound I-27], the pIC50 against KAT5 and against KAT6A was 4.30 to 5.00 each time.
Take `Nc1ncc(-c2ccc(-c3ccccc3)cc2F)n1S(=O)(=O)c1ccccc1` [Compound I-284]: the pIC50 at KAT5 and at KAT6A was under 4.00 in each case.
As to `Cc1cc(-c2ccccc2)cc(C(=O)N(C)NS(=O)(=O)c2ccccc2)c1F` [Compound I-215], the pIC50 on KAT5 was under 4.00; against KAT6A, 4.30 to 5.00.
With `CN1CCC(c2ccc(F)c(C(=O)NNS(=O)(=O)C3CCCCC3)c2)C1` (stereo not drawn) [Compound I-407], the pIC50 at KAT5 and against KAT6A was under 4.00 in each case.
`CC(C)C(Cc1ccccc1)C(=O)NNS(=O)(=O)c1ccccc1` (stereo not drawn) [Compound I-260]: the pIC50 against KAT5 and against KAT6A was under 4.00 throughout.
For `CCC(=O)N1CC(S(=O)(=O)NNC(=O)c2cc(-c3ccccc3)cc(C)c2F)C1` [Compound I-113], the values for the pIC50 on KAT5 and at KAT6A were 4.00 to 4.30 and 4.30 to 5.00, respectively.
In the case of `Cc1c(-c2ccccc2)ccc(F)c1C(=O)NNS(=O)(=O)CC(Cc1ccccc1)C(C)C` (stereo not drawn) [Compound I-268], the pIC50 at KAT5 and against KAT6A was 4.30 to 5.00 each time.
For the molecule `O=C(NCCO)c1cc(Cl)c(F)c(C(=O)NNS(=O)(=O)C2CCCCC2)c1` [Compound I-470], the negative logarithm of the IC50 (pIC50) against KAT5 is 4.00 to 4.30; at KAT6A, under 4.00.
Taken in the same sequence, the figures for `CN1CCN(Cc2cc(Cl)c(F)c(C(=O)NNS(=O)(=O)C3CCOCC3)c2)CC1` [Compound I-442] were under 4.00 and under 4.00.
Consider `O=C(NNS(=O)(=O)c1ccccc1)c1cccc(Cl)c1F` [Compound I-160], for which the pIC50 against KAT5 is 4.30 to 5.00; against KAT6A, at least 5.00.
Turning to `Cc1cc(-c2ccccc2)cc(C(=O)NNS(=O)(=O)C(C)C)c1F` [Compound I-3], the pIC50 is 4.30 to 5.00 against KAT5 and 4.00 to 4.30 against KAT6A.
For `Cc1cc(-c2ccccc2)cc(C(=O)NNS(=O)(=O)C(C)(C)C)c1F` [Compound I-21], the pIC50 on KAT5 and on KAT6A was under 4.00 throughout.
As to `COc1cccc(-c2cc(C)c(F)c(C(=O)NNS(=O)(=O)C3CCCCC3)c2)c1` [Compound I-348], the pIC50 against KAT5 and against KAT6A was 4.30 to 5.00 throughout.
For the molecule `O=C(NNS(=O)(=O)c1ccccc1)c1ccccc1` [Compound I-159], the results for the pIC50 against KAT5 and against KAT6A were under 4.00 and 4.00 to 4.30, respectively.
On the same counts, the results for `O=C(NNS(=O)(=O)c1cccc(-c2ccccc2)c1)C1CCCCC1` [Compound I-522] are under 4.00 and under 4.00.
Taken in the same sequence, the figures for `COc1cccc(-c2cc(C)c(F)c(C(=O)NNS(=O)(=O)CC3CCCCC3)c2)c1` [Compound I-298] were at least 5.00 and 4.30 to 5.00.
On the same counts, the results for `Cc1cccc(-c2cc(Cl)c(F)c(C(=O)NNS(=O)(=O)C3CCCCC3)c2)c1` [Compound I-404] are 4.30 to 5.00 and 4.30 to 5.00.
For the molecule `O=S(=O)(Nc1ncc(-c2cc(-c3ccccc3)ccc2F)[nH]1)c1ccccc1` [Compound I-67], the pIC50 against KAT5 and against KAT6A was under 4.00 each time.
On to `Cc1cc(C(=O)NNS(=O)(=O)c2ccccc2)cc(-c2ccccc2)c1F` [Compound I-126], for which the pIC50 against KAT5 was 4.00 to 4.30; on KAT6A, at least 5.00.
Taken in the same sequence, the figures for `Cc1cc(-c2ccccc2)cc(C(=O)NNS(=O)(=O)C2CCNCC2)c1F` [Compound I-89] were under 4.00 and under 4.00.
Taken in the same sequence, the figures for `CC(=O)N1CCC(S(=O)(=O)NNC(=O)c2cc(-c3ccccc3)cc(C)c2F)CC1` [Compound I-94] were 4.30 to 5.00 and 4.30 to 5.00.
For the molecule `Cc1cc(-c2ccccc2)cc(C(=O)NNS(=O)(=O)C(C)C2CCCN(C(=O)OC(C)(C)C)C2)c1F` (stereo not drawn) [Compound I-313], the pIC50 against KAT5 was at least 5.00; on KAT6A, 4.30 to 5.00.
Taken in the same sequence, the figures for `Cc1cc(-c2ccccc2)cc(C(=O)NNS(=O)(=O)c2cccc(F)c2)c1F` [Compound I-214] were at least 5.00 and at least 5.00.
Turning to `COc1cc(F)cc(-c2cc(Cl)c(F)c(C(=O)NNS(=O)(=O)C3CCCCC3)c2)c1` [Compound I-486], the pIC50 at KAT5 and on KAT6A was 4.30 to 5.00 each time.
For `Cc1cc(-c2ccccc2)cc(C(=O)NNS(=O)(=O)c2cccc(C(N)=O)c2)c1F` [Compound I-383], the pIC50 on KAT5 and against KAT6A was at least 5.00 each time.
As for `O=C(NNS(=O)(=O)c1cc(-c2ccccc2)cc(Cl)c1F)C1CCCCC1` [Compound I-524], the pIC50 at KAT5 is 4.00 to 4.30; on KAT6A, 4.30 to 5.00.
`COCCN1CCCC(CS(=O)(=O)NNC(=O)c2cc(-c3ccccc3)cc(C)c2F)C1` (stereo not drawn) [Compound I-297]: the pIC50 was 4.30 to 5.00 on KAT5 and at least 5.00 at KAT6A.
Take `Cc1cc(-c2cccc(F)c2F)cc(C(=O)NNS(=O)(=O)c2ccccc2)c1F` [Compound I-362]: the pIC50 against KAT5 and on KAT6A was at least 5.00 each time.
With `Cc1cccc(C(=O)NNS(=O)(=O)Cc2ccccc2)c1F` [Compound I-39], the pIC50 against KAT5 was 4.30 to 5.00; on KAT6A, under 4.00.
On the same counts, the results for `COc1c(C)cc(-c2ccccc2)cc1C(=O)NNS(=O)(=O)C1CCCCC1` [Compound I-311] are under 4.00 and under 4.00.
In the case of `CC(C)(C)OC(=O)N1CCC(S(=O)(=O)NNC(=O)c2cc(Cl)cc(Cl)c2F)CC1` [Compound I-405], the pIC50 on KAT5 is 4.30 to 5.00; at KAT6A, under 4.00.
On the same counts, the results for `CC(=O)N1CCC(CS(=O)(=O)NNC(=O)c2cc(-c3ccccc3)cc(C)c2F)C1` (stereo not drawn) [Compound I-335] are at least 5.00 and at least 5.00.
Taken in the same sequence, the figures for `COc1ccccc1-c1cc(C)c(F)c(C(=O)NNS(=O)(=O)c2ccccc2)c1` [Compound I-304] were 4.00 to 4.30 and at least 5.00.
Regarding `Cc1cc(-c2cccc(F)c2)cc(C(=O)NNS(=O)(=O)C2CCOC2)c1F` (stereo not drawn) [Compound I-438], the pIC50 at KAT5 and against KAT6A was 4.30 to 5.00 throughout.
Consider `Cc1cccc(-c2ccc(F)c(C(=O)NNS(=O)(=O)c3ccccc3)c2)c1` [Compound I-125], for which the values for the negative logarithm of the IC50 (pIC50) against KAT5 and at KAT6A were 4.30 to 5.00 and at least 5.00, respectively.
Taken in the same sequence, the figures for `Cc1cc(C2CCN(C)CC2)cc(C(=O)NNS(=O)(=O)C2CCCCC2)c1F` [Compound I-338] were under 4.00 and under 4.00.
On the same counts, the results for `CN(C)C(=O)c1cc(Cl)c(F)c(C(=O)NNS(=O)(=O)C2CCOCC2)c1` [Compound I-434] are under 4.00 and under 4.00.
Consider `O=C(NNS(=O)(=O)c1ccccc1)c1cccc(Cl)c1` [Compound I-190], for which the pIC50 was 4.00 to 4.30 on KAT5 and 4.30 to 5.00 on KAT6A.
On the same counts, the results for `Cc1cc(-c2ccccc2)cc(C(=O)NCc2noc3ccccc23)c1F` [Compound I-368] are 4.00 to 4.30 and 4.00 to 4.30.
On the same counts, the results for `Cc1nn(C)c(C(=O)NNS(=O)(=O)C2CCCCC2)c1F` [Compound I-469] are under 4.00 and under 4.00.
`Cc1cc(-c2ccccc2)cc(C(=O)NNS(=O)(=O)CC2CCCN(C(=O)C(C)C)C2)c1F` (stereo not drawn) [Compound I-369]: the pIC50 at KAT5 and against KAT6A was at least 5.00 in each case.
Turning to `CNC(=O)Cn1nc(C)cc1C(=O)NNS(=O)(=O)C1CCCCC1` [Compound I-500], the pIC50 at KAT5 and at KAT6A was under 4.00 each time.
Regarding `Cc1cc(-c2cccc(F)c2)cc(C(=O)NNS(=O)(=O)CC2CCN(C(=O)CCN(C)C)CC2)c1F` [Compound I-432], the pIC50 at KAT5 and at KAT6A was 4.30 to 5.00 in each case.
In the case of `Cc1cc(-c2ccccc2)cc(C(=O)NNS(=O)(=O)CC2CCCN(C(=O)C(C)(C)C)C2)c1F` (stereo not drawn) [Compound I-281], the pIC50 against KAT5 and at KAT6A was at least 5.00 each time.
